Results from patent US9856279B2 (AGIOS PHARMACEUTICALS, INC, priority 2011, dated 2018).

How the values were obtained:
HT1080 cells = test: Cellular assay for IDH1m inhibitors: inhibition of 2-HG production (LC-MS, 48 hours) in HT1080 cells; type: cell-based; details: Homo sapiens, HT-1080; inhibition of 2-HG production, HT1080 cells; read-out: HT1080 IC50
In short: (§1)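 HT1080 or U87MG cells were seeded at 5000/well in DMEM with 10% FBS, incubated overnight, then treated with compounds (0.2% DMSO final) for 48 h. Medium 2-HG was quantified by LC-MS, and IC50 was taken as the concentration reducing 2-HG by 50% versus DMSO control.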

IDH1 R132H = IDH1 R132H (Homo sapiens, UniProt O75874, R132H); test: Assay for IDH1 R132H inhibitors (NADPH/aKG, resazurin detection); type: biochemical; details: enzyme assay of Example 12; read-out: IDH1R132H IC50
In short: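 Read-out is resorufin fluorescence (Ex544/Em590) 5 min after adding a 30 μM resazurin detection mix. Before that, mutant enzyme (0.2 μg/ml in its mix) ran 50 min at room temperature with compound, 8 uM NADPH and 2 mM aKG (mix levels) in Tris pH 7.5 with NaCl, MgCl2, BSA.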

U87MG cells = test: Cellular assay for IDH1m inhibitors: inhibition of 2-HG production (LC-MS, 48 hours) in U87MG cells; type: cell-based; details: Homo sapiens, U-87 MG, inhibition of 2-HG production, U87R132H cells; read-out: U87R132H IC50
In short: as §1

Chain of IDH1 R132H (O75874 whole entry R132H): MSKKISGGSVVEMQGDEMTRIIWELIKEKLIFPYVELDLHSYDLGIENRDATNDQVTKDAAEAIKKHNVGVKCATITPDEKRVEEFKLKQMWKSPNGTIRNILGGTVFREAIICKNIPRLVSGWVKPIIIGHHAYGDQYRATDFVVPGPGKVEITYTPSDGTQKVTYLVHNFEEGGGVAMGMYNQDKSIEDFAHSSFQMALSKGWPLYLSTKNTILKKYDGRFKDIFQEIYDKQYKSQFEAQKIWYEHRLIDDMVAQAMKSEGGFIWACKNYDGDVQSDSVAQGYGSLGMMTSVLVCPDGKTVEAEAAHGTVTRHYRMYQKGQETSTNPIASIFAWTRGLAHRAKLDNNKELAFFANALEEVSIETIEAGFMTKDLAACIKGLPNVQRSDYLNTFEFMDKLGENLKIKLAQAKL

Compound	IC50 (HT1080 cells) [nM]	IC50 (IDH1 R132H) [nM]	IC50 (U87MG cells) [nM]
COCCC(=O)N1CCN(c2nc(C3CC3)c(OCc3cccc(C(=O)OC)c3)cc2C#N)C[C@H]1C [Compound 292, (R)-methyl 3-((5-cyano-2-cyclopropyl-6-(4-(3-methoxypropanoyl)-3-methylpiperazin-1-yl)pyridin-3-yloxy)methyl)benzoate]	500 to 1000	< 500	1000 to 10000
COCCC(=O)N1CCN(c2nc(C3CC3)c(OCc3ccc(C(=O)OC)cc3)cc2C#N)C[C@H]1C [Compound 293, (R)-methyl 4-((5-cyano-2-cyclopropyl-6-(4-(3-methoxypropanoyl)-3-methylpiperazin-1-yl)pyridin-3-yloxy)methyl)benzoate]	1000 to 10000	< 500	1000 to 10000
COCCC(=O)N1CCN(c2nc(C3CC3)c(OCc3cccc(C#N)c3)cc2C#N)C[C@H]1C [Compound 294, (R)-5-(3-cyanobenzyloxy)-6-cyclopropyl-2-(4-(3-methoxypropanoyl)-3-methylpiperazin-1-yl)nicotinonitrile]	500 to 1000	< 500	500 to 1000
COCCC(=O)N1CCN(c2nc(C3CC3)c(-c3ccc4[nH]ncc4c3)cc2C#N)C[C@H]1C [Compound 295, (R)-6-cyclopropyl-5-(1H-indazol-5-yl)-2-(4-(3-methoxypropanoyl)-3-methylpiperazin-1-yl)nicotinonitrile]	500 to 1000	< 500	500 to 1000
COCCC(=O)N1CCN(c2nc(C3CC3)c(-c3ccc(C(N)=O)cc3)cc2C#N)C[C@H]1C [Compound 296, (R)-4-(5-cyano-2-cyclopropyl-6-(4-(3-methoxypropanoyl)-3-methylpiperazin-1-yl)pyridin-3-yl)benzamide]	500 to 1000	< 500	500 to 1000
COCCC(=O)N1CCN(c2nc(C3CC3)c(-c3cccc(CCO)c3)cc2C#N)C[C@H]1C [Compound 297, (R)-6-cyclopropyl-5-(3-(2-hydroxyethyl)phenyl)-2-(4-(3-methoxypropanoyl)-3-methylpiperazin-1-yl)nicotinonitrile]	500 to 1000	< 500	1000 to 10000
COCCC(=O)N1CCN(c2nc(C3CC3)c(-c3ccc(F)cc3)c(C)c2C#N)C[C@H]1C1CC1 [Compound 299, (R)-6-cyclopropyl-2-(3-cyclopropyl-4-(3-methoxypropanoyl)piperazin-1-yl)-5-(4-fluorophenyl)-4-methylnicotinonitrile]	500 to 1000	< 500	500 to 1000
COCCC(=O)N1CCN(c2nc(C3CC3)c(OCc3ccc(CO)cc3)cc2C#N)C[C@H]1C [Compound 301, (R)-6-cyclopropyl-5-(4-(hydroxymethyl)benzyloxy)-2-(4-(3-methoxypropanoyl)-3-methylpiperazin-1-yl)nicotinonitrile]	1000 to 10000	< 500	1000 to 10000
COCCC(=O)N1CCN(c2nc(C3CC3)c(OC(c3ccccc3)C(C)C)cc2C#N)C[C@H]1C (stereo partly drawn) [Compound 302, 6-cyclopropyl-2-((R)-4-(3-methoxypropanoyl)-3-methylpiperazin-1-yl)-5-(2-methyl-1-phenylpropoxy)nicotinonitrile]	1000 to 10000	< 500	1000 to 10000
COCCC(=O)N1CCN(c2nc(C3CC3)c(O[C@@H](C)c3ccccc3)cc2C#N)C[C@H]1C [Compound 303, 6-cyclopropyl-2-((R)-4-(3-methoxypropanoyl)-3-methylpiperazin-1-yl)-5-((S)-1-phenylethoxy)nicotinonitrile]	1000 to 10000	< 500	1000 to 10000
COCCC(=O)N1CCN(c2nc(C3CC3)c(OCc3cccnc3)cc2C#N)C[C@H]1C [Compound 304, (R)-6-cyclopropyl-2-(4-(3-methoxypropanoyl)-3-methylpiperazin-1-yl)-5-(pyridin-3-ylmethoxy)nicotinonitrile]	1000 to 10000	< 500	500 to 1000
COCCC(=O)N1CCN(c2nc(C3CC3)c(O[C@H](C)c3ccccc3)cc2C#N)C[C@H]1C [Compound 307, 6-cyclopropyl-2-((R)-4-(3-methoxypropanoyl)-3-methylpiperazin-1-yl)-5-((R)-1-phenylethoxy)nicotinonitrile]	1000 to 10000	< 500	1000 to 10000
CCC(Oc1cc(C#N)c(N2CCN(C(=O)CCOC)[C@H](C)C2)nc1C1CC1)c1ccccc1 (stereo partly drawn) [Compound 308, 6-cyclopropyl-2-((R)-4-(3-methoxypropanoyl)-3-methylpiperazin-1-yl)-5-(1-phenylpropoxy)nicotinonitrile]	1000 to 10000	< 500	1000 to 10000
COCCC(=O)N1CCN(c2nc(C3CC3)c(OCc3ccncc3)cc2C#N)C[C@H]1C [Compound 309, (R)-6-cyclopropyl-2-(4-(3-methoxypropanoyl)-3-methylpiperazin-1-yl)-5-(pyridin-4-ylmethoxy)nicotinonitrile]	500 to 1000	< 500	500 to 1000
COCCC(=O)N1CCN(c2nc(C3CC3)c(OCc3cccc([N+](=O)[O-])c3)cc2C#N)C[C@H]1C [Compound 312, (R)-6-cyclopropyl-2-(4-(3-methoxypropanoyl)-3-methylpiperazin-1-yl)-5-(3-nitrobenzyloxy)nicotinonitrile]	500 to 1000	< 500	1000 to 10000
COCCC(=O)N1CCN(c2nc(C3CC3)c(-c3ccc4c(c3)NC(=O)C4)cc2C#N)C[C@H]1C [Compound 313, (R)-6-cyclopropyl-2-(4-(3-methoxypropanoyl)-3-methylpiperazin-1-yl)-5-(2-oxoindolin-6-yl)nicotinonitrile]	1000 to 10000	< 500	500 to 1000
COCCC(=O)N1CCN(c2nc(C3CC3)c(-c3ccnc4ccccc34)cc2C#N)C[C@H]1C [Compound 315, (R)-6-cyclopropyl-2-(4-(3-methoxypropanoyl)-3-methylpiperazin-1-yl)-5-(quinolin-4-yl)nicotinonitrile]	< 500	< 500	500 to 1000
COCCC(=O)N1CCN(c2nc(C3CC3)c(-c3cccnc3OC)c(C)c2C#N)C[C@H]1C [Compound 320, (R)-2-cyclopropyl-2′-methoxy-6-[4-(3-methoxy-propionyl)-3-methyl-piperazin-1-yl]-4-methyl-[3,3′]bipyridinyl-5-carbonitrile]	500 to 1000	< 500	< 500
COCCC(=O)N1CCN(c2nc(C3CC3)c(-c3ccc(F)c(C#N)c3)c(C)c2C#N)C[C@H]1C [Compound 321, (R)-5-(3-cyano-4-fluoro-phenyl)-6-cyclopropyl-2-[4-(3-methoxy-propionyl)-3-methyl-piperazin-1-yl]-4-methyl-nicotinonitrile]	500 to 1000	< 500	< 500
COCCC(=O)N1CCN(c2nc(C3CC3)c(-c3ccc(OC)c(F)c3)c(C)c2C#N)C[C@H]1C [Compound 323, (R)-6-cyclopropyl-5-(3-fluoro-4-methoxy-phenyl)-2-[4-(3-methoxy-propionyl)-3-methyl-piperazin-1-yl]-4-methyl-nicotinonitrile]	500 to 1000	< 500	500 to 1000
COCCC(=O)N1CCN(c2nc(C3CC3)c(-c3ccc(NC(C)=O)cc3)c(C)c2C#N)C[C@H]1C [Compound 326, (R)—N-(4-{5-cyano-2-cyclopropyl-6-[4-(3-methoxy-propionyl)-3-methyl-piperazin-1-yl]-4-methyl-pyridin-3-yl}-phenyl)-acetamide]	500 to 1000	< 500	< 500
COCCC(=O)N1CCN(c2nc(C3CC3)c(-c3ccc(CNS(C)(=O)=O)cc3)c(C)c2C#N)C[C@H]1C [Compound 330, (R)—N-(4-{5-cyano-2-cyclopropyl-6-[4-(3-methoxy-propionyl)-3-methyl-piperazin-1-yl]-4-methyl-pyridin-3-yl}-benzyl)-methanesulfonamide]	< 500	< 500	< 500
COCCC(=O)N1CCN(c2nc(C3CC3)c(-c3cccc(CNS(C)(=O)=O)c3)c(C)c2C#N)C[C@H]1C [Compound 335, (R)—N-(3-{5-cyano-2-cyclopropyl-6-[4-(3-methoxy-propionyl)-3-methyl-piperazin-1-yl]-4-methyl-pyridin-3-yl}-benzyl)-methanesulfonamide]	500 to 1000	< 500	< 500
COCCC(=O)N1CCN(c2nc(C3CC3)c(-c3ccc(CNC(C)=O)cc3)c(C)c2C#N)C[C@H]1C [Compound 340, (R)—N-(4-{5-cyano-2-cyclopropyl-6-[4-(3-methoxy-propionyl)-3-methyl-piperazin-1-yl]-4-methyl-pyridin-3-yl}-benzyl)-acetamide]	500 to 1000	< 500	500 to 1000
COCCC(=O)N1CCN(c2nc(C3CC3)c(-c3cccc4cccnc34)cc2C#N)C[C@H]1C [Compound 342, (R)-6-cyclopropyl-2-(4-(3-methoxypropanoyl)-3-methylpiperazin-1-yl)-5-(quinolin-8-yl)nicotinonitrile]	< 500	< 500	< 500
C=CC(=O)Nc1cccc(-c2cc(C#N)c(N3CCN(C(=O)CCOC)[C@H](C)C3)nc2C2CC2)c1 [Compound 343, (R)—N-(3-(5-cyano-2-cyclopropyl-6-(4-(3-methoxypropanoyl)-3-methylpiperazin-1-yl)pyridin-3-yl)phenyl)acrylamide]	< 500	< 500	< 500
